Test results as given in the NIST ThermoML archive (doi:10.1016/j.jct.2015.11.027).

Details: Liquid, Vibrating wire viscometry

Cc1cccc(C)c1 [1,3-dimethylbenzene]
Details | viscosity [mPa·s]
273.54 K, 10000 kPa | 0.8601
273.54 K, 25000 kPa | 0.9681
273.54 K, 30000 kPa | 1.008
273.55 K, 1000 kPa | 0.8029
273.55 K, 5000 kPa | 0.8274
273.55 K, 15000 kPa | 0.8952
273.55 K, 20000 kPa | 0.9293
273.56 K, 100 kPa | 0.7948
283.24 K, 100 kPa | 0.7
283.24 K, 10000 kPa | 0.7574
283.25 K, 1000 kPa | 0.707
283.25 K, 5000 kPa | 0.7291
283.25 K, 15000 kPa | 0.7883
283.25 K, 20000 kPa | 0.8196
283.25 K, 25000 kPa | 0.853
283.25 K, 30000 kPa | 0.8858
293.06 K, 1000 kPa | 0.6255
293.06 K, 20000 kPa | 0.7224
293.06 K, 25000 kPa | 0.7497
293.07 K, 100 kPa | 0.6215
293.07 K, 5000 kPa | 0.644
293.07 K, 10000 kPa | 0.6692
293.07 K, 15000 kPa | 0.6957
293.07 K, 30000 kPa | 0.7757
302.87 K, 30000 kPa | 0.6903
302.88 K, 5000 kPa | 0.5751
302.88 K, 25000 kPa | 0.6673
302.89 K, 15000 kPa | 0.6204
302.9 K, 100 kPa | 0.5542
302.9 K, 1000 kPa | 0.5571
302.9 K, 10000 kPa | 0.598
302.9 K, 20000 kPa | 0.645
313.29 K, 1000 kPa | 0.4982
313.3 K, 100 kPa | 0.4952
313.3 K, 5000 kPa | 0.5142
313.3 K, 10000 kPa | 0.5341
313.31 K, 15000 kPa | 0.5548
313.31 K, 20000 kPa | 0.5757
313.31 K, 25000 kPa | 0.5968
313.31 K, 30000 kPa | 0.618
323 K, 10000 kPa | 0.4847
323.01 K, 100 kPa | 0.4499
323.01 K, 1000 kPa | 0.4531
323.01 K, 5000 kPa | 0.467
323.02 K, 15000 kPa | 0.5032
323.02 K, 20000 kPa | 0.522
323.02 K, 25000 kPa | 0.5411
323.02 K, 30000 kPa | 0.5599
333.1 K, 100 kPa | 0.4087
333.11 K, 1000 kPa | 0.411
333.11 K, 5000 kPa | 0.4237
333.11 K, 10000 kPa | 0.4414
333.11 K, 15000 kPa | 0.4585
333.11 K, 20000 kPa | 0.4756
333.12 K, 25000 kPa | 0.4931
333.12 K, 30000 kPa | 0.5101
342.97 K, 20000 kPa | 0.4363
342.97 K, 25000 kPa | 0.4516
342.97 K, 30000 kPa | 0.4678
342.98 K, 100 kPa | 0.3731
342.98 K, 1000 kPa | 0.3761
342.98 K, 5000 kPa | 0.3882
342.98 K, 10000 kPa | 0.4036
342.98 K, 15000 kPa | 0.4205
352.88 K, 20000 kPa | 0.4014
352.88 K, 25000 kPa | 0.4162
352.88 K, 30000 kPa | 0.431
352.89 K, 100 kPa | 0.3436
352.89 K, 1000 kPa | 0.346
352.89 K, 5000 kPa | 0.3581
352.89 K, 10000 kPa | 0.3728
352.89 K, 15000 kPa | 0.3867
362.69 K, 100 kPa | 0.3175
362.7 K, 1000 kPa | 0.32
362.7 K, 5000 kPa | 0.3307
362.7 K, 10000 kPa | 0.3452
362.71 K, 15000 kPa | 0.3587
362.71 K, 20000 kPa | 0.3726
362.71 K, 25000 kPa | 0.3859
362.71 K, 30000 kPa | 0.3995
372.5 K, 100 kPa | 0.2936
372.5 K, 1000 kPa | 0.2964
372.51 K, 5000 kPa | 0.307
372.51 K, 10000 kPa | 0.3199
372.51 K, 15000 kPa | 0.3331
372.51 K, 20000 kPa | 0.3463
372.51 K, 25000 kPa | 0.3587
372.51 K, 30000 kPa | 0.3715

Cc1ccccc1C [1,2-dimethylbenzene]
Details | viscosity [mPa·s]
273.48 K, 100 kPa | 1.102
273.48 K, 1000 kPa | 1.113
273.48 K, 5000 kPa | 1.154
273.48 K, 10000 kPa | 1.209
273.48 K, 15000 kPa | 1.264
273.48 K, 20000 kPa | 1.319
273.48 K, 25000 kPa | 1.378
273.48 K, 30000 kPa | 1.436
283.21 K, 10000 kPa | 1.031
283.21 K, 15000 kPa | 1.075
283.21 K, 20000 kPa | 1.121
283.21 K, 25000 kPa | 1.169
283.21 K, 30000 kPa | 1.216
283.22 K, 100 kPa | 0.9464
283.22 K, 1000 kPa | 0.9529
283.22 K, 5000 kPa | 0.9859
293.04 K, 100 kPa | 0.8196
293.04 K, 1000 kPa | 0.8252
293.04 K, 5000 kPa | 0.8535
293.04 K, 10000 kPa | 0.8901
293.05 K, 15000 kPa | 0.9269
293.05 K, 20000 kPa | 0.9685
293.05 K, 25000 kPa | 1.006
293.06 K, 30000 kPa | 1.048
302.87 K, 100 kPa | 0.7178
302.87 K, 1000 kPa | 0.7228
302.87 K, 20000 kPa | 0.8457
302.87 K, 25000 kPa | 0.879
302.87 K, 30000 kPa | 0.9126
302.88 K, 5000 kPa | 0.7489
302.88 K, 10000 kPa | 0.7794
302.88 K, 15000 kPa | 0.8128
312.66 K, 100 kPa | 0.6371
312.66 K, 10000 kPa | 0.6901
312.66 K, 20000 kPa | 0.7486
312.66 K, 25000 kPa | 0.7781
312.66 K, 30000 kPa | 0.8077
312.67 K, 1000 kPa | 0.6414
312.67 K, 5000 kPa | 0.6635
312.67 K, 15000 kPa | 0.7185
321.85 K, 100 kPa | 0.5744
321.85 K, 1000 kPa | 0.5794
321.85 K, 10000 kPa | 0.6241
321.85 K, 15000 kPa | 0.6489
321.85 K, 30000 kPa | 0.7248
321.86 K, 5000 kPa | 0.5991
321.86 K, 20000 kPa | 0.6748
321.86 K, 25000 kPa | 0.6987
332.47 K, 100 kPa | 0.515
332.47 K, 1000 kPa | 0.5176
332.48 K, 5000 kPa | 0.5347
332.48 K, 10000 kPa | 0.5575
332.48 K, 15000 kPa | 0.5798
332.48 K, 20000 kPa | 0.6029
332.48 K, 25000 kPa | 0.6273
332.48 K, 30000 kPa | 0.6504
343.06 K, 100 kPa | 0.4586
343.07 K, 1000 kPa | 0.4624
343.07 K, 5000 kPa | 0.4782
343.07 K, 10000 kPa | 0.499
343.08 K, 15000 kPa | 0.5195
343.08 K, 25000 kPa | 0.5603
343.08 K, 30000 kPa | 0.5817
343.09 K, 20000 kPa | 0.5401
353.01 K, 30000 kPa | 0.5312
353.02 K, 10000 kPa | 0.4549
353.02 K, 15000 kPa | 0.4725
353.02 K, 20000 kPa | 0.4922
353.02 K, 25000 kPa | 0.5113
353.03 K, 5000 kPa | 0.4342
353.04 K, 100 kPa | 0.4177
353.04 K, 1000 kPa | 0.4196
362.85 K, 100 kPa | 0.3838
362.85 K, 1000 kPa | 0.3862
362.85 K, 5000 kPa | 0.4001
362.85 K, 10000 kPa | 0.4169
362.86 K, 15000 kPa | 0.434
362.86 K, 20000 kPa | 0.4506
362.87 K, 25000 kPa | 0.469
362.87 K, 30000 kPa | 0.4842
372.83 K, 100 kPa | 0.3528
372.84 K, 1000 kPa | 0.3556
372.84 K, 5000 kPa | 0.3683
372.85 K, 10000 kPa | 0.3831
372.85 K, 25000 kPa | 0.4324
372.86 K, 15000 kPa | 0.4015
372.86 K, 20000 kPa | 0.4156
372.86 K, 30000 kPa | 0.4477
